Where “and” joins values, the source holds several entries; their conditions need not be identical. Identical values can stand only once. Toxic doses and inconclusive results are not listed.
Test system: BDF1 mice, P388/ADR leukemia ip, median survival T/C
Test: NCI In Vivo Anticancer Drug Screen. Data for tumor model P388 Leukemia resistant to Adriamycin; NSC 123127, Developed at Scr 06 and 41 (intraperitoneal) in B6D2F1 (BDF1) mice
Conditions: endpoint: median survival time, higher = longer survival
Procedure: The antitumor activity of compounds was measured in mice bearing transplantable tumors. Survival or tumor size were measured and the results are expressed as the measurement made in the treated group (T) divided by the measurement made in the vehicle treated control group (C). The tumor model used in this assay is P388 Leukemia resistant to Adriamycin; NSC 123127, Developed at Scr 06 and 41 (intraperitoneal) in B6D2F1 (BDF1) mice

[1] = dose: 18.0 mg/kg/injection, schedule: Q04DX003 (ip), vehicle: saline

COC(=O)[C@@]12OC[C@]34[C@H]([C@@H](O)[C@@H]1O)[C@@]1(C)CC(=O)C(O)=C(C)[C@@H]1C[C@H]3OC(=O)[C@H](OC(=O)/C=C(\C)C(C)C)[C@@H]24
T/C (dose: 0.65 mg/kg/injection, schedule: Q04DX003 (ip), vehicle: saline + alcohol): 113 % of control | T/C (dose: 1.08 mg/kg/injection, schedule: Q04DX003 (ip), vehicle: saline + alcohol): 93 % of control and 97 % of control | T/C (dose: 1.8 mg/kg/injection, schedule: Q04DX003 (ip), vehicle: saline + alcohol): 86 % of control and 90 % of control

CSCS(=O)C[C@H](CO)NC(=O)/C=C/c1c(C)[nH]c(=O)[nH]c1=O (some centres undefined)
T/C (dose: 0.72 mg/kg/injection, schedule: Q04DX003 (ip), vehicle: saline): 88 % of control | T/C (dose: 0.86 mg/kg/injection, schedule: Q04DX003 (ip), vehicle: saline): 100 % of control | T/C (dose: 1.2 mg/kg/injection, schedule: Q04DX003 (ip), vehicle: saline): 86 % of control | T/C (dose: 1.44 mg/kg/injection, schedule: Q04DX003 (ip), vehicle: saline): 114 % of control | T/C (dose: 2.0 mg/kg/injection, schedule: Q04DX003 (ip), vehicle: saline): 86 % of control | T/C (dose: 2.4 mg/kg/injection, schedule: Q04DX003 (ip), vehicle: saline): 119 % of control | T/C (dose: 173.0 micrograms/kg/injection, schedule: Q01DX009 (ip), vehicle: saline): 99 % of control | T/C (dose: 288.0 micrograms/kg/injection, schedule: Q01DX009 (ip), vehicle: saline): 99 % of control | T/C (dose: 480.0 micrograms/kg/injection, schedule: Q01DX009 (ip), vehicle: saline): 95 % of control

CCCCC(=O)OCC(=O)[C@]1(O)Cc2c(O)c3c(c(O)c2[C@@H](OC2CC(NC(=O)C(F)(F)F)C(O)C(C)O2)C1)C(=O)c1c(OC)cccc1C3=O (some centres undefined)
T/C (dose: 13.0 mg/kg/injection, schedule: Q01DX004 (ip), vehicle: saline with Tween-80): 105 % of control | T/C (dose: 15.1 mg/kg/injection, schedule: Q04DX003 (ip), vehicle: other): 120 % of control | T/C (dose: 21.0 mg/kg/injection, schedule: Q01DX004 (ip), vehicle: saline with Tween-80): 113 % of control | T/C (dose: 25.2 mg/kg/injection, schedule: Q04DX003 (ip), vehicle: other): 119 % of control | T/C (dose: 42.0 mg/kg/injection, schedule: Q04DX003 (ip), vehicle: other): 122 % of control | T/C (dose: 70.0 mg/kg/injection, schedule: Q04DX003 (ip), vehicle: other): 155 % of control

CC[C@@]1(O)C[C@H](OC2CC(N(C)C)C(O)C(C)O2)c2c(cc3c(c2O)C(=O)c2c(O)ccc(O)c2C3=O)[C@H]1C(=O)OC (some centres undefined)
T/C (dose: 4.32 mg/kg/injection, schedule: Q04DX003 (ip), vehicle: other): 110 % of control | T/C (dose: 7.2 mg/kg/injection, schedule: Q04DX003 (ip), vehicle: other): 109 % of control | T/C (dose: 12.0 mg/kg/injection, schedule: Q04DX003 (ip), vehicle: other): 104 % of control | T/C (dose: 20.0 mg/kg/injection, schedule: Q04DX003 (ip), vehicle: other): 110 % of control

Nc1nncs1
T/C (dose: 173.0 mg/kg/injection, schedule: Q04DX003 (ip), vehicle: other): 199 % of control | T/C (dose: 288.0 mg/kg/injection, schedule: Q04DX003 (ip), vehicle: other): 90 % of control

COc1cccc2c1C(=O)c1c(O)c3c(c(O)c1C2=O)C[C@@](O)(C(C)=O)C[C@@H]3OC1CC(N(C)C)C(O)C(C)O1 (some centres undefined)
T/C (dose: 3.46 mg/kg/injection, schedule: Q04DX003 (ip), vehicle: water): 114 % of control | T/C (dose: 5.76 mg/kg/injection, schedule: Q04DX003 (ip), vehicle: water): 121 % of control | T/C (dose: 9.6 mg/kg/injection, schedule: Q04DX003 (ip), vehicle: water): 113 % of control | T/C (dose: 16.0 mg/kg/injection, schedule: Q04DX003 (ip), vehicle: water): 104 % of control

CCC1(O)CC2CN(CCc3c([nH]c4ccccc34)C(C(=O)OC)(c3cc4c(cc3OC)N(C)C3C(O)(C(N)=O)C(O)C5(CC)C=CCN6CCC43C65)C2)C1 (centres undefined) (tested in a mixture with another compound)
T/C (dose: 0.65 mg/kg/injection, schedule: Q04DX003 (ip), vehicle: saline): 107 % of control | T/C (dose: 1.08 mg/kg/injection, schedule: Q04DX003 (ip), vehicle: saline): 111 % of control | T/C (dose: 1.8 mg/kg/injection, schedule: Q04DX003 (ip), vehicle: saline): 101 % of control | T/C (dose: 3.0 mg/kg/injection, schedule: Q04DX003 (ip), vehicle: saline): 86 % of control

COc1cc2cc3c4cc(OC)c(OC)cc4cc[n+]3c(C)c2cc1OC (tested in a mixture with another compound)
T/C (dose: 86.4 mg/kg/injection, schedule: Q04DX003 (ip), vehicle: other): 103 % of control | T/C (dose: 144.0 mg/kg/injection, schedule: Q04DX003 (ip), vehicle: other): 95 % of control

CC[C@H]1CN2CCc3cc(OC)c(OC)cc3[C@@H]2C[C@@H]1C[C@H]1NCCc2cc(OC)c(OC)cc21
T/C (dose: 7.78 mg/kg/injection, schedule: Q04DX003 (ip), vehicle: saline): 106 % of control | T/C (dose: 9.0 mg/kg/injection, schedule: Q04DX003 (ip), vehicle: saline): 94 % of control | T/C (dose: 13.0 mg/kg/injection, schedule: Q04DX003 (ip), vehicle: saline): 114 % of control | T/C [1]: 100 % of control | T/C (dose: 21.6 mg/kg/injection, schedule: Q04DX003 (ip), vehicle: saline): 106 % of control

C[n+]1ccc(Nc2ccc(NC(=O)c3ccc(Nc4cc[n+](C)c5ccc(N)cc45)cc3)cc2)cc1
T/C (dose: 7.2 mg/kg/injection, schedule: Q01DX009 (ip), vehicle: water): 163 % of control

CN(Cc1cnc2nc(N)nc(N)c2n1)c1ccc(C(=O)N[C@@H](CCC(=O)O)C(=O)O)cc1
T/C (dose: 10.8 mg/kg/injection, schedule: Q04DX003 (ip), vehicle: sodium bicarbonate): 158 % of control | T/C (dose: 18.0 mg/kg/injection, schedule: Q04DX003 (ip), vehicle: sodium bicarbonate): 188 % of control | T/C (dose: 30.0 mg/kg/injection, schedule: Q04DX003 (ip), vehicle: sodium bicarbonate): 166 % of control | T/C (dose: 50.0 mg/kg/injection, schedule: Q04DX003 (ip), vehicle: sodium bicarbonate): 111 % of control

CC[C@@]1(O)C[C@H](OC2CC(N(C)C)C(OC3CC(O)C(OC4CCC(=O)C(C)O4)C(C)O3)C(C)O2)c2c(cc3c(c2O)C(=O)c2c(O)ccc(O)c2C3=O)[C@H]1C(=O)OC (some centres undefined)
T/C (dose: 0.65 mg/kg/injection, schedule: Q01DX009 (ip), vehicle: water): 110 % of control | T/C (dose: 1.08 mg/kg/injection, schedule: Q01DX009 (ip), vehicle: water): 120 % of control | T/C (dose: 1.73 mg/kg/injection, schedule: Q04DX003 (ip), vehicle: water): 115 % of control and 124 % of control | T/C (dose: 2.5 mg/kg/injection, schedule: Q04DX003 (ip), vehicle: water): 116 % of control | T/C (dose: 2.88 mg/kg/injection, schedule: Q04DX003 (ip), vehicle: water): 119 % of control | T/C (dose: 3.0 mg/kg/injection, schedule: Q01DX009 (ip), vehicle: water): 90 % of control | T/C (dose: 4.8 mg/kg/injection, schedule: Q04DX003 (ip), vehicle: other): 119 % of control | T/C (dose: 4.8 mg/kg/injection, schedule: Q04DX003 (ip), vehicle: water): 150 % of control | T/C (dose: 5.0 mg/kg/injection, schedule: Q04DX003 (ip), vehicle: water): 110 % of control

CC[C@@]1(O)C[C@H](OC2CC(N(C)C)C(OC3CC(O)C(OC4CC(O)C(O)C(C)O4)C(C)O3)C(C)O2)c2c(cc3c(c2O)C(=O)c2c(O)ccc(O)c2C3=O)[C@H]1C(=O)OC (some centres undefined)
T/C (dose: 1.08 mg/kg/injection, schedule: Q04DX003 (ip), vehicle: water): 106 % of control | T/C (dose: 1.8 mg/kg/injection, schedule: Q04DX003 (ip), vehicle: water): 109 % of control | T/C (dose: 3.0 mg/kg/injection, schedule: Q04DX003 (ip), vehicle: water): 120 % of control

COc1cccc2c1C(=O)c1c(O)c3c(c(O)c1C2=O)CC(O)(C(=O)CO)CC3OC1CC(N)C(O)C(C)O1 (centres undefined)
T/C (dose: 1.73 mg/kg/injection, schedule: Q01DX004 (ip), vehicle: water): 103 % of control | T/C (dose: 6.48 mg/kg/injection, schedule: Q04DX003 (ip), vehicle: saline): 107 % of control | T/C (dose: 10.8 mg/kg/injection, schedule: Q04DX003 (ip), vehicle: saline): 93 % of control | T/C [1]: 106 % of control | T/C (dose: 30.0 mg/kg/injection, schedule: Q04DX003 (ip), vehicle: saline): 94 % of control

CCC1(O)CC2CN(CCc3c([nH]c4ccccc34)C(C(=O)OC)(c3cc4c(cc3OC)N(C)C3C(O)(C(=O)NCCSSCCNC(=O)C5(O)C(O)C6(CC)C=CCN7CCC8(c9cc(C%10(C(=O)OC)CC%11CN(CCc%12c%10[nH]c%10ccccc%12%10)CC(O)(CC)C%11)c(OC)cc9N(C)C58)C76)C(O)C5(CC)C=CCN6CCC43C65)C2)C1 (centres undefined)
T/C (dose: 432.0 micrograms/kg/injection, schedule: Q04DX003 (ip), vehicle: saline): 111 % of control | T/C (dose: 720.0 micrograms/kg/injection, schedule: Q04DX003 (ip), vehicle: saline): 124 % of control | T/C (dose: 2000.0 micrograms/kg/injection, schedule: Q04DX003 (ip), vehicle: saline): 116 % of control
